In ChEMBL document CHEMBL4354877, “MymA Bioactivated Thioalkylbenzoxazole Prodrug Family Active against Mycobacterium tuberculosis” (J Med Chem, 2020) one finds MIC data, which are given here for one molecule.

What all share (type): functional
The test system of experiment [1] is Mycobacterium tuberculosis. Kind of experiment: Antimycobacterial activity against Mycobacterium tuberculosis SG2 expressing ethA and mymA mutant assessed as inhibition of microbial growth incubated for 6 days by alamar blue resazurin assay.
Experiment [2] concerns Mycobacterium tuberculosis. Kind of experiment: Antimycobacterial activity against Mycobacterium tuberculosis 2-RM1 expressing ethA frameshift mutant assessed as inhibition of microbial growth incubated for 6 days by alamar blue resazurin assay.
For experiment [3], the system named is Mycobacterium tuberculosis. Kind of experiment: Antimycobacterial activity against Mycobacterium tuberculosis 3-RM1 expressing mymA mutant assessed as inhibition of microbial growth incubated for 6 days by alamar blue resazurin assay.
Experiment [4] has as its system Mycobacterium tuberculosis. Kind of experiment: Antimycobacterial activity against Mycobacterium tuberculosis Rv3083::Tn expressing mymA mutant assessed as inhibition of microbial growth incubated for 6 days by alamar blue resazurin assay.

With `O=C(CCSc1nc2cc(Cl)ccc2o1)N1CCCC1`, the minimum inhibitory concentration (MIC) is 80 µM in experiment [1], 10 µM in experiment [2], 40 µM in experiment [3] and 40 µM in experiment [4].
